According to US9486435B2, “(Het)aryl-p-quinone derivatives for treatment of mitochondrial diseases” (Edison Pharmaceuticals, Inc., priority 2008, dated 2016):

What was measured:
Type in all cases: cell-based
[1] = system: Human dermal fibroblasts from Friedreich's Ataxia patients; assay: Rescue of BSO-stressed FRDA fibroblasts (Calcein AM viability); settings: FRDA fibroblasts GM04078, BSO stress, read-out: protection against FRDA, EC50
Procedure: (§1) An initial screen was performed to identify compounds effective for the amelioration of redox disorders. Test samples, 4 reference compounds (Idebenone, decylubiquinone, Trolox and α-tocopherol acetate), and solvent controls were tested for their ability to rescue FRDA fibroblasts stressed by addition of L-buthionine-(S,R)-sulfoximine (BSO), as described in Jauslin et al., Hum. Mol. Genet. 11(24):3055 (2002), Jauslin et al., FASEB J. 17:1972-4 (2003), and International Patent Application WO 2004/003565. […] This specific BSO-mediated cell death can be prevented by administration of antioxidants or molecules involved in the antioxidant pathway, such as α-tocopherol, selenium, or small molecule glutathione peroxidase mimetics. However, antioxidants differ in their potency, i.e. the concentration at which they are able to rescue BSO-stressed FRDA fibroblasts.
MEM (a medium enriched in amino acids and vitamins, catalog no. 1-31F24-I) and Medium 199 (M199, catalog no. 1-21F22-I) with Earle's Balanced Salts, without phenol red, were purchased from Bioconcept. Fetal Calf Serum was obtained from PAA Laboratories. Basic fibroblast growth factor and epidermal growth factor were purchased from PeproTech. Penicillin-streptomycin-glutamine mix, L-buthionine (S,R)-sulfoximine, (+)-α-tocopherol acetate, decylubiquinone, and insulin from bovine pancreas were purchased from Sigma. Trolox (6-hydroxy-2,5,7,8-tetramethylchromane-2-carboxylic acid) was obtained from Fluka. Idebenone was obtained from Chemo Iberica. Calcein AM was purchased from Molecular Probes. Cell culture medium was made by combining 125 ml M 199 EBS, 50 ml Fetal Calf Serum, 100 U/ml penicillin, 100 μg/ml streptomycin, 2 mM glutamine, 10 μg/ml insulin, 10 ng/ml EGF, and 10 ng/ml bFGF; MEM EBS was added to make the volume up to 500 ml. A 10 mM BSO solution was prepared by dissolving 444 mg BSO in 200 ml of medium with subsequent filter-sterilization. During the course of the experiments, this solution was stored at +4° C. The cells were obtained from the Coriell Cell Repositories (Camden, N.J.; repository number GM04078) and grown in 10 cm tissue culture plates. Every third day, they were split at a 1:3 ratio.
The test samples were supplied in 1.5 ml glass vials. The compounds were diluted with DMSO, ethanol or PBS to result in a 5 mM stock solution. Once dissolved, they were stored at −20° C. Reference antioxidants (Idebenone, decylubiquinone, α-tocopherol acetate and trolox) were dissolved in DMSO.
(§2) Test samples were screened according to the following protocol: A culture with FRDA fibroblasts was started from a 1 ml vial with approximately 500,000 cells stored in liquid nitrogen. Cells were propagated in 10 cm cell culture dishes by splitting every third day in a ratio of 1:3 until nine plates were available. Once confluent, fibroblasts were harvested. For 54 micro titer plates (96 well-MTP) a total of 14.3 million cells (passage eight) were re-suspended in 480 ml medium, corresponding to 100 μl medium with 3,000 cells/well. The remaining cells were distributed in 10 cm cell culture plates (500,000 cells/plate) for propagation. The plates were incubated overnight at 37° C. in a atmosphere with 95% humidity and 5% CO2 to allow attachment of the cells to the culture plate.
(§3) MTP medium (243 μl) was added to a well of the microtiter plate. The test compounds were unfrozen, and 7.5 μl of a 5 mM stock solution was dissolved in the well containing 243 μl medium, resulting in a 150 μM master solution. Serial dilutions from the master solution were made. The period between the single dilution steps was kept as short as possible (generally less than 1 second).
Plates were kept overnight in the cell culture incubator. The next day, 10 μl of a 10 mM BSO solution were added to the wells, resulting in a 1 mM final BSO concentration. Forty-eight hours later, three plates were examined under a phase-contrast microscope to verify that the cells in the 0% control (wells E1-H1) were clearly dead. […]

[2] = system: human dermal fibroblasts from Huntington's patients; assay: Rescue of BSO-stressed fibroblasts from Huntington's patients; settings: Fibroblast, Huntington's fibroblasts GM 04281, BSO stress, read-out: protection against Huntington's, EC50
Procedure: as §1, §2, §3
(§4) Plates were kept overnight in the cell culture incubator. The next day, 10 μl of a 10 mM BSO solution were added to the wells, resulting in a 1 mM final BSO concentration. Forty-eight hours later, three plates were examined under a phase-contrast microscope to verify that the cells in the 0% control (wells E1-H1) were clearly dead. The medium from all plates was discarded, and the remaining liquid was removed by gently tapping the plate inversed onto a paper towel.
(§5) 100 μl of PBS containing 1.2 μM Calcein AM were then added to each well. The plates were incubated for 50-70 minutes at room temperature. After that time the PBS was discarded, the plate gently tapped on a paper towel and fluorescence (excitation/emission wavelengths of 485 nm and 525 nm, respectively) was read on a Gemini fluorescence reader. Data was imported into Microsoft Excel (EXCEL is a registered trademark of Microsoft Corporation for a spreadsheet program) and used to calculate the EC50 concentration for each compound.
Compounds of the invention were tested using the screen as described in Example A, but substituting FRDA cells with Huntington's cells obtained from the Coriell Cell Repositories (Camden, N.J.; repository number GM 04281). The compounds were tested for their ability to rescue human dermal fibroblasts from Huntington's patients from oxidative stress.

[3] = system: human dermal fibroblasts from LHON patients; assay: Rescue of BSO-stressed fibroblasts from LHON patients; settings: Fibroblast, LHON fibroblasts GM03858, BSO stress, read-out: protection against LHON, EC50
Procedure: as §1, §2, §3, §4, §5
Compounds of the invention were screened as described in Example A, but substituting FRDA cells with Leber's Hereditary Optic Neuropathy (LHON) cells obtained from the Coriell Cell Repositories (Camden, N.J.; repository number GM03858). The compounds were tested for their ability to rescue human dermal fibroblasts from LHON patients from oxidative stress.

[4] = system: human dermal fibroblasts from Parkinson's disease patients; assay: Rescue of BSO-stressed fibroblasts from Parkinson's disease patients; settings: Fibroblast, PD fibroblasts AG20439, BSO stress, read-out: protection against PD, EC50
Procedure: as §1, §2, §3, §4, §5
Compounds of the invention were screened as described in Example A, but substituting FRDA cells with Parkinson's Disease (PD) cells obtained from the Coriell Cell Repositories (Camden, N.J.; repository number AG20439). The compounds were tested for their ability to rescue human dermal fibroblasts from Parkinson's disease patients from oxidative stress.

Measured: EC50

CC1=C(CCC(C)(C)O)C(=O)C(c2ccc(F)cc2)=C(C)C1=O [Example 6, 2-(4Fluorophenyl)-6-(3-hydroxy-3-methylbutyl)-3,5-dimethylcyclohexa-2,5-diene-1,4-dione]
< 200 nM: all assays above

CC1=C(C)C(=O)C(c2ccc(C(F)(F)F)cc2)=C(CCC(C)(C)O)C1=O [Example 11, 2-(3-Hydroxy-3-methylbutyl)-5,6-dimethyl-3-(4-(trifluoromethyl)phenyl)cyclohexa-2,5-diene-1,4-dione]
< 200 nM: all assays above

CC1=C(C)C(=O)C(c2ccc3ccccc3c2)=C(CCC(C)(C)O)C1=O [Example 13, 2-(3-Hydroxy-3-methylbutyl)-5,6-dimethyl-3-(naphthalen-2-yl)cyclohexa-2,5-diene-1,4-dione]
< 200 nM: all assays above

CC1=C(C)C(=O)C(c2ccc(Cl)cc2)=C(CCC(C)(C)O)C1=O [Example 15, 2-(4-Chlorophenyl)-3-(3-hydroxy-3-methylbutyl)-5,6-dimethylcyclohexa-2,5-diene-1,4-dione]
< 200 nM: all assays above

CCc1ccc(C2=C(CCC(C)(C)O)C(=O)C(C)=C(C)C2=O)cc1 [Example 16, 2-(4-Ethylphenyl)-3-(3-hydroxy-3-methylbutyl)-5,6-dimethylcyclohexa-2,5-diene-1,4-dione]
< 200 nM: all assays above

CC1=C(C)C(=O)C(c2cccc(C(F)(F)F)c2)=C(CCC(C)(C)O)C1=O [Example 17, 2-(3-Hydroxy-3-methylbutyl)-5,6-dimethyl-3-(3-(trifluoromethyl)phenyl)cyclohexa-2,5-diene-1,4-dione]
< 200 nM: all assays above

CC1=C(C)C(=O)C(c2ccc(C(C)(C)C)cc2)=C(CCC(C)(C)O)C1=O [Example 18, 2-(4-tert-Butylphenyl)-3-(3-hydroxy-3-methylbutyl)-5,6-dimethylcyclohexa-2,5-diene-1,4-dione]
< 200 nM: all assays above

CC1=C(C)C(=O)C(c2cccc(F)c2)=C(CCC(C)(C)O)C1=O [Example 20, 2-(3-Fluorophenyl)-3-(3-hydroxy-3-methylbutyl)-5,6-dimethylcyclohexa-2,5-diene-1,4-dione]
< 200 nM: all assays above

CC1=C(C)C(=O)C(CCC(C)(C)O)=C(CCCc2ccccc2)C1=O [Example 24, 2-(3-Hydroxy-3-methylbutyl)-5,6-dimethyl-3-(3-phenylpropyl)cyclohexa-2,5-diene-1,4-dione]
< 200 nM: all assays above
